The target of test [1] is T1, WDR5 (Homo sapiens, UniProt P61964). In words: Surface Plasmon Resonance (SPR) assay. It is filed as binding. Further details: Full length WDR5 with an N-terminal His tag and C-terminal AviTag; His tag (N); made in house; host or cells: E. coli. Conditions: read-out: SPR Kd. The gist of the method:
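Full-length biotinylated WDR5 (N-His, C-AviTag, E. coli) captured (~3000 RU) on streptavidin SA chip; Biacore T200. HBS-EP pH 7.4 plus 5% DMSO running buffer, 40 μl/min.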

In test [2] the target is T1, WDR5. As to the kind of experiment: Fluorescence Polarization (FP) binding assay. The procedure, abridged:
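Buffer was pH 6.5 sodium phosphate (80 mM) with 20 mM KCl and 0.008% Triton X-100; 9-Ala-FAM probe at 20 nM used 0.05 μM WDR5 and 480/540 nm polarization, H3 (1-15) probe at 30 nM used 0.3 μM WDR5 and 485/528 nm. Quadruplicate data were hyperbola-fitted to give Kdisp.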
(Polarisation of emitted light reports the rotation of a fluorescent probe.)

Test [3] relates to MV4-11 cells. In words: Cell proliferation assay (ATPlite). The test is classed as cell-based. To be noted: Homo sapiens, 120 h; MV4-11 cells, five days; read-out: GI MV411 EC50. The procedure, abridged:
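ATPlite luminescence after five days' culture (37° C, 5% CO2) gives viability. Compounds dosed in 10 concentrations up to 10 μM against DMSO; 1,000 cells/well seeded in Alpha-MEM/10% FBS.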
A general note: ATP-based viability assays read luminescence as a measure of living cells.

Turning to `C[C@@H]1CN(c2cc(F)c(-c3cnc(N(C)C)c(F)c3)c(F)c2NC(=O)c2c[nH]c(=O)cc2C(F)(F)F)C[C@H](C)N1C` [Example 63, N-(3-(6-(dimethylamino)-5-fluoropyridin-3-yl)-2,4-difluoro-6-((3S,5R)-3,4,5-trimethylpiperazin-1-yl)phenyl)-6-oxo-4-(trifluoromethyl)-1,6-dihydropyridine-3-carboxamide], in test [1], the Kd was 1.81 nM. Further, the IC50 in test [2] came out at 13 nM. For the same compound, the EC50 in test [3] worked out at 61.8 nM.

Consider `C[C@H]1CN(c2cc(F)c(C3=CCCN(c4ncc(F)cn4)C3)c(F)c2NC(=O)c2c[nH]c(=O)cc2C(F)F)CCN1C` [Example 83, (S)-4-(difluoromethyl)-N-(6-(3,4-dimethylpiperazin-1-yl)-2,4-difluoro-3-(1-(5-fluoropyrimidin-2-yl)-1,2,5,6-tetrahydropyridin-3-yl)phenyl)-6-oxo-1,6-dihydropyridine-3-carboxamide], for which the Kd in test [1] was determined as 1.15 nM. In test [2], the IC50 came out at 15.5 nM. In addition, the EC50 in test [3] was found to be 382 nM.

Take `C[C@@H]1CN(c2ncc(-c3c(F)cc(N4C[C@@H](C)N(C)[C@@H](C)C4)c(NC(=O)c4c[nH]c(=O)cc4C(F)F)c3F)cn2)C[C@H](C)O1` [Example 111, 4-(Difluoromethyl)-N-(3-(2-((2S,6R)-2,6-dimethylmorpholino)pyrimidin-5-yl)-2,4-difluoro-6-((3S,5R)-3,4,5-trimethylpiperazin-1-yl)phenyl)-6-oxo-1,6-dihydropyridine-3-carboxamide]: the Kd in test [1] was 1.29 nM. Besides, the IC50 in test [2] was 14.1 nM. Also, in test [3], the EC50 came to 9.48 nM.

Regarding `C[C@@H]1CN(c2ccc(-c3c(F)cc(N4CCN(C)[C@@H](C)C4)c(NC(=O)c4c[nH]c(=O)cc4C(F)(F)F)c3F)cn2)C[C@H](C)O1` [Example 170, N-(3-(6-((2S,6R)-2,6-dimethylmorpholino)pyridin-3-yl)-6-((S)-3,4-dimethylpiperazin-1-yl)-2,4-difluorophenyl)-6-oxo-4-(trifluoromethyl)-1,6-dihydropyridine-3-carboxamide], in test [1], the equilibrium dissociation constant (Kd) was found to be 0.83 nM. Further, the IC50 in test [2] is 15.6 nM. Besides, the EC50 in test [3] was found to be 32.3 nM.

As to `CC(C)[C@@H]1CN(c2ncc(-c3c(F)cc(N4CCN(C)[C@@H](C)C4)c(NC(=O)c4c[nH]c(=O)cc4C(F)F)c3F)cn2)CCO1` [Example 117, 4-(Difluoromethyl)-N-(6-((S)-3,4-dimethylpiperazin-1-yl)-2,4-difluoro-3-(2-((R)-2-isopropylmorpholino)pyrimidin-5-yl)phenyl)-6-oxo-1,6-dihydropyridine-3-carboxamide], the dissociation constant (Kd) in test [1] is 0.84 nM. Further, the 50% inhibitory concentration (IC50) in test [2] was 13.6 nM. The concentration for a half-maximal effect (EC50) in test [3] is 28.2 nM.

On to `C[C@@H]1CN(c2cc(F)c(C3=CCCN(C(=O)c4csc(CN(C)C)n4)C3)c(F)c2NC(=O)c2c[nH]c(=O)cc2C(F)(F)F)C[C@H](C)N1C` [Example 189, N-(3-(1-(2-((dimethylamino)methyl)thiazole-4-carbonyl)-1,2,5,6-tetrahydropyridin-3-yl)-2,4-difluoro-6-((3S,5R)-3,4,5-trimethylpiperazin-1-yl)phenyl)-6-oxo-4-(trifluoromethyl)-1,6-dihydropyridine-3-carboxamide], for which the Kd in test [1] was determined as 1.51 nM. Further, in test [2], the IC50 came out at 12.7 nM. Further, the EC50 in test [3] was found to be 487 nM.

Consider `C[C@@H]1CN(c2cc(F)c(C3=CCCN(C(=O)OC4CC(F)(F)C4)C3)c(F)c2NC(=O)c2c[nH]c(=O)cc2C(F)(F)F)C[C@H](C)N1C` [Example 20, 3,3-Difluorocyclobutyl 5-(2,6-difluoro-3-(6-oxo-4-(trifluoromethyl)-1,6-dihydropyridine-3-carboxamido)-4-((3S,5R)-3,4,5-trimethylpiperazin-1-yl)phenyl)-3,6-dihydropyridine-1(2H)-carboxylate], for which the Kd in test [1] is 2.06 nM. Further, the IC50 in test [2] is 14.1 nM. For the same compound, the EC50 in test [3] amounted to 153 nM.

For `C[C@@H]1CN(c2cc(F)c(-c3ccc(C(N)=O)c(F)c3)c(F)c2NC(=O)c2c[nH]c(=O)cc2C(F)(F)F)C[C@H](C)N1C` [Example 25, N-(4′-carbamoyl-2,3′,6-trifluoro-4-((3S,5R)-3,4,5-trimethylpiperazin-1-yl)-[1,1′-biphenyl]-3-yl)-6-oxo-4-(trifluoromethyl)-1,6-dihydropyridine-3-carboxamide], in test [1], the Kd stood at 2.05 nM. Besides, the IC50 in test [2] turned out to be 19.5 nM. Besides, the EC50 in test [3] was 148 nM.

Regarding `C[C@@H]1CN(c2cc(F)c(-c3cnc(N4C[C@H](C)O[C@@H](C)C4)nc3)c(F)c2NC(=O)c2c[nH]c(=O)cc2C(F)F)C[C@H](C)N1C` [Example 120, 4-(Difluoromethyl)-N-(3-(2-((2S,6S)-2,6-dimethylmorpholino)pyrimidin-5-yl)-2,4-difluoro-6-((3S,5R)-3,4,5-trimethylpiperazin-1-yl)phenyl)-6-oxo-1,6-dihydropyridine-3-carboxamide], the Kd in test [1] was 1.35 nM. Moreover, the IC50 in test [2] turned out to be 12 nM. The EC50 in test [3] was 2.07 nM.

As for `C[C@@H]1CN(c2cc(F)c(-c3cnc4c(c3)OCCO4)c(F)c2NC(=O)c2c[nH]c(=O)cc2C(F)(F)F)C[C@H](C)N1C` [Example 73, N-(3-(2,3-dihydro-[1,4]dioxino[2,3-b]pyridin-7-yl)-2,4-difluoro-6-((3S,5R)-3,4,5-trimethylpiperazin-1-yl)phenyl)-6-oxo-4-(trifluoromethyl)-1,6-dihydropyridine-3-carboxamide], the Kd in test [1] was found to be 1.26 nM. In test [2], the IC50 was 16.8 nM. The 50% effective concentration (EC50) in test [3] stood at 110 nM.

On to `COc1cnc(N2CCC=C(c3c(F)cc(N4CCN(C)[C@@H](C)C4)c(NC(=O)c4c[nH]c(=O)cc4C(F)(F)F)c3F)C2)nc1` [Example 52, (S)—N-(6-(3,4-dimethylpiperazin-1-yl)-2,4-difluoro-3-(1-(5-methoxypyrimidin-2-yl)-1,2,5,6-tetrahydropyridin-3-yl)phenyl)-6-oxo-4-(trifluoromethyl)-1,6-dihydropyridine-3-carboxamide], for which the Kd in test [1] was 0.46 nM. Further, the concentration for half-maximal inhibition (IC50) in test [2] is 20.1 nM. The EC50 in test [3] was 285 nM.

Consider `C[C@@H]1CN(c2cc(F)c(-c3cnc(N4CCOCC4)c(C#N)c3)c(F)c2NC(=O)c2c[nH]c(=O)cc2C(F)(F)F)C[C@H](C)N1C` [Example 64, N-(3-(5-cyano-6-morpholinopyridin-3-yl)-2,4-difluoro-6-((3S,5R)-3,4,5-trimethylpiperazin-1-yl)phenyl)-6-oxo-4-(trifluoromethyl)-1,6-dihydropyridine-3-carboxamide], for which, in test [1], the Kd stood at 2.48 nM. In addition, in test [2], the half-inhibitory concentration (IC50) turned out to be 14.9 nM. For the same compound, the EC50 in test [3] is 32.7 nM.

For the compound `C[C@@H]1CN(c2ncc(-c3c(F)cc(N4CCN(C)[C@@H](C)C4)c(NC(=O)c4c[nH]c(=O)cc4C(F)F)c3F)cn2)C[C@@H](C)O1` [Example 115, 4-(Difluoromethyl)-N-(3-(2-((2R,6R)-2,6-dimethylmorpholino)pyrimidin-5-yl)-6-((S)-3,4-dimethylpiperazin-1-yl)-2,4-difluorophenyl)-6-oxo-1,6-dihydropyridine-3-carboxamide], the Kd in test [1] was 0.7 nM. Moreover, the IC50 in test [2] came out at 13.8 nM. Moreover, in test [3], the EC50 was found to be 9.38 nM.

The Kd is a measure of binding affinity in units of concentration. What is called IC50 is the concentration that inhibits the measured activity by half. In general, EC50 refers to the concentration giving half of the maximal effect.
